# Experimental data as given in patent US20070042949A1, “Pharmaceutical compositions comprising an epitope of platelet gpiiia protein” (priority 2003, published 2007).
# System: Peripheral blood mononuclear cells (PBMC) from HPA-1b1b women
# Test: T-cell proliferation assay (3H-thymidine incorporation) of PBMC stimulated with HPA-1a/1b 15-mer peptides, HPA-1b1b women
# Format: cell-based, human
# Details: peptide 20 μg/mL; for immunodominance in stimulating specific T-cell responses in vitro: HPA-1a alloimmunised HPA-1b1b women; for strength of PBMC proliferative response (in words): HPA-1b1b women
# Method: The cells were stimulated with a panel of 15-mer peptides corresponding to the sequences of the HPA-1a and 1b alloantigens containing Leu33 and Pro33 respectively (see FIG. 1). Two categories of control donors were utilised; 1 HPA-1b1b unimmunised donor and 11 HPA-1a randomly selected female donors. Testing of both patients and controls was carried out in cell culture conditions designed to favour proliferation by previously activated T-cells, rather than primary responses.
# The human platelet membrane GPIIIa amino acid sequence reported by Frachet et al Mol. Biol. Rep. 1990, vol 14, 27-33 (genebank accession no: M35999) was used as the basis for production of the HPA-1a and HPA-1b GPIIIa synthetic peptides. Two panels of 15-mer peptides were synthesised corresponding to the sequences of the HPA-1 polymorphic region, with either the Leu-33 or Pro-33 at each possible position (see FIG. 1). One set of the 15-mer peptides contained the leucine polymorphism and the other set of 15 contained the proline polymorphism. To ensure purity each panel was synthesized by f-moc chemistry. The peptides were reconstituted to a concentration of 2.0 mg/ml and used for stimulation of PBMC at 20 μg/mL in culture.
# Mononuclear cells were recovered from samples of peripheral blood of all patients and control donors by density gradient centrifugation technique (Lymphoprep; Nycomed, Denmark) according to the manufacturer's instructions. The cells were then manually counted by hemocytometer.
# Peripheral blood mononuclear cells were cultured at a concentration of 1.25×10^6 cells per mL in Alpha Modification of Eagle's Medium (Sigma Diagnostic, St. Louis, Mo., USA.) supplemented with 4 mmol/l L-glutamine (Gibco, Paisley, UK), 100 μg/ml streptomycin sulphate (Sigma Diagnostic, St. Louis, Mo., USA), 100 u/mL sodium benzylpenicillin G (Sigma Diagnostic, St. Louis, Mo., USA), 20 mmol/L HEPES, PH 7.2 (Sigma Diagnostic, St. Louis, Mo., USA) and 5% autologous serum or AB serum. Twelve microlitres of synthetic HPA-1a/1b peptides and control antigens (PPD, KLH and ConA) were each added to appropriate wells of the microtitre plates before the cell culture suspension was layered. The culture plates were incubated at 37° C. in a humidified atmosphere of 95% air and 5% CO2 for 5 days. T-cell proliferation in cultures was estimated from the incorporation of ^3H-thymidine in triplicate 100 μL samples withdrawn from the plates 5 days after stimulation. T-cell proliferation results were presented either as the mean counts per minute (CPM)±SD of the triplicate samples or as a stimulation index (SI) expressing the ratio of mean CPM in stimulated versus unstimulated control cultures. A SI >3 was interpreted as representing a positive response.
Substance,immunodominance in stimulating specific T-cell responses in vitro,strength of PBMC proliferative response (in words) (5 days),"percentage of HPA-1a alloimmunised HPA-1b1b women in whom the peptide elicited proliferation of T-cells (5 days, SI >3 = positive response, 14 alloimmunised women)"
"SEQ ID No:7: 15-mer synthetic HPA-1a (Leu-33) GPIIIa peptide, polymorphism in the C-terminal part of the peptide (WCSDEALPLGSPRCD; listed as Homo sapiens)",immunodominant,strong responses in particular individuals,–
"SEQ ID No:5: 15-mer synthetic HPA-1a (Leu-33) GPIIIa peptide, polymorphism in the C-terminal part of the peptide (CAWCSDEALPLGSPR; listed as Homo sapiens)",immunodominant,–,–
"SEQ ID No:3: 15-mer synthetic HPA-1a (Leu-33) GPIIIa peptide, polymorphism in the C-terminal part of the peptide (PMCAWCSDEALPLGS; listed as Homo sapiens)",immunodominant,–,–
"SEQ ID No:4: 15-mer synthetic HPA-1a (Leu-33) GPIIIa peptide, polymorphism in the C-terminal part of the peptide (MCAWCSDEALPLGSP; listed as Homo sapiens)",immunodominant,–,–
"SEQ ID No:1: 15-mer synthetic HPA-1a (Leu-33) GPIIIa peptide, polymorphism in the C-terminal part of the peptide (VSPMCAWCSDEALPL; listed as Homo sapiens)",immunodominant,–,approximately 50%
"SEQ ID No:6: 15-mer synthetic HPA-1a (Leu-33) GPIIIa peptide, polymorphism in the C-terminal part of the peptide (AWCSDEALPLGSPRC; listed as Homo sapiens)",immunodominant,strong responses in particular individuals,–
"SEQ ID No:2: 15-mer synthetic HPA-1a (Leu-33) GPIIIa peptide, polymorphism in the C-terminal part of the peptide (SPMCAWCSDEALPLG; listed as Homo sapiens)",immunodominant,–,–
